These are literature values, as cited in patent US5399360A, “Pharmaceutical compositions” (Sandoz Pharmaceuticals Corp., priority 1986, dated 1995).

For this data set the following is noted: described in German Patent 2,111,071.

Consider `CN1CCC(=C2c3ccccc3CC(=O)c3sccc32)CC1` [Ketotifen, 4-(1-methyl-4-piperidylidene)-4H-benzo[4,5]cyclohepta[1,2-b]thiophen-10(9H)-one], for which the pharmacological properties result is recorded as “anti-anaphylacticand anti-histamine properties”.
